Reference: a melting point compilation (Tetko et al.; mined from patent text by program, amines drawn as free bases though some values may be those of a salt)

Row | Structure (SMILES) | melting point [°C]
1 | CS(=O)(=O)NCCCCn1c(CCCOc2ccccc2)nc2c(N)nc3ccccc3c21 | 156 to 157
2 | CCCc1c(OCC=CS(=O)(=O)c2ccc(CC(=O)O)c(F)c2)ccc(C(C)=O)c1O | 249 to 251
3 | Cn1ncnc1COc1nc2c(cc1-c1ccoc1)nnn2-c1c(F)cccc1F | 166 to 169
4 | CS(=O)(=O)c1ccc(-c2cc(=O)n(CC(=O)c3ccccc3)nc2-c2ccc(F)cc2)cc1 | 178 to 180
5 | CN1CCN(Cc2nnc(-c3ccccc3)cc2-c2cccc([N+](=O)[O-])c2)CC1 | 157 to 159
6 | Cc1cnc(CCCC#N)c([N+](=O)[O-])c1 | 53 to 55
7 | Cc1oc(NC(=O)CCl)c(C#N)c1C | 114
8 | CCCCNC(=O)c1cc(S(=O)(=O)NC23CC4CC(CC(C4)C2)C3)cc2c1OCCO2 | 147
9 | Ic1ccc(SSc2ccc(I)c3ccccc23)c2ccccc12 | 129 to 131
10 | CCC(C=CC(C)C1CCC2C3CC=C4CC(OC(=O)NCCO)CCC4(C)C3CCC12C)C(C)C (configuration not stated) | 172 to 173
11 | CN1CCN2c3ccc(Cl)cc3C(c3ccco3)=NCC2C1 (configuration not stated) | > 240
12 | Cc1cc(-n2cncn2)ccc1N | 122 to 125
13 | O=C1c2ccccc2C(=O)N1CC(Br)(c1ccccc1)C(F)Br (configuration not stated) | 163 to 164
14 | COc1nsc(OCCC#CI)c1C#N | 71 to 73
15 | CS(=O)(=O)Nc1cc2occ(-c3cscn3)c(=O)c2cc1Oc1ccccc1 | > 250
16 | CCC(Cl)c1nc2cccnc2[nH]1 (configuration not stated) | 137
17 | Cc1c(Cl)cccc1Nc1ncccc1C(=O)OC1OC(=O)c2ccccc21 (configuration not stated) | 178 to 180
18 | BrCC1(CBr)COC(c2ccccc2)OC1 | 66
19 | Cn1ncc2ccccc2c1=O | 111 to 112
20 | CC(C)(C)c1nnc(S)n(N)c1=O | 209 to 212
21 | N[C@H]1CCN(c2ccc3c(NC(=O)CCc4ccccc4Cl)c(Cl)ccc3n2)C1 | 200 to 212
22 | Cn1ncnc1COc1nn2c(-c3ccccc3F)nnc2cc1C1(C)CCOCC1 | 191
23 | CN(Cc1ccc(NC(=O)C2=Cc3cc(-c4ccc(OCc5ccc(Cl)s5)cc4)ccc3S(=O)(=O)CC2)cc1)C1CCOCC1 | 207 to 210
24 | Cc1ccc(C(=O)Nc2ccc(N3CCCC3)c(C(F)(F)F)c2)cc1Nc1nccc(-c2cccnc2)n1 | 129 to 130
25 | CC1CC2C3CCC4=CC(=O)CCC4(C)C3(F)C(O)CC2(C)C1C(=O)CC#N (configuration not stated) | 224
26 | C#CC(C)NC(=O)CCCCl (configuration not stated) | 50 to 51
27 | CC(=O)N(CCC(CCN1CCCCC1)(C(N)=O)c1ccccc1Cl)C(C)C (configuration not stated) | 141 to 147
28 | C[C@H]1[C@H](N2C(=O)c3ccccc3C2=O)C(=O)N1O (relative stereo) | 94 to 96

Row | Structure (SMILES) | melting point [°C]
29 | O=C(Nc1ccccc1)c1cc(NC(=S)Nc2cc(Cl)cc(Cl)c2)ccc1F | 195 to 196
30 | C1=CC(c2ccccc2)Nc2ccccc21 (configuration not stated) | 75
31 | O=C(NCc1ccccc1)c1cn2c(=O)n(Cc3ccc(Cl)cc3)c(=O)cc2s1 | > 220
32 | O=C1CC(c2ccccc2)Cc2[nH]ccc21 (configuration not stated) | 187 to 189
33 | O=C(c1ccccc1)N1CCCc2ncc3ccccc3c21 | 208 to 210
34 | CCOC(=O)C(=O)Nc1c(Cl)cc(Cl)c(Cl)c1O | 178
35 | CNCCNC(=NCCSCc1[nH]cnc1C)NC#N | 146 to 148
36 | Nc1nc2c(Cc3ccsc3)c(I)[nH]c2c(=O)[nH]1 | > 260
37 | Cc1cc(-n2ccnc2)c2cccc(OCc3c(Cl)ccc(S(=O)(=O)N4CCC[C@H]4C(=O)O)c3Cl)c2n1 | 172
38 | O=c1nc(-c2cccc(CS(=O)Cc3ccccc3)n2)sc2ccccc12 (configuration not stated) | 187 to 189
39 | N#CCCNC(=O)Sc1ccccc1 | 86 to 90
40 | C=Cc1ncc2[nH]c3cccc(OCc4ccccc4)c3c2c1COC | 183 to 185
41 | CCCCCCCCCCCCC(C)CNc1cc(C)c([N+](=O)[O-])cc1C(N)=O (configuration not stated) | 117 to 119
42 | O=c1[nH]c2ccccc2c2c(CCC3CCNCC3)n(-c3ccccc3)nc12 | 250 to 252
43 | Nc1sc2c(c1C(=O)c1cccs1)CCCC2 | 115 to 118
44 | O=c1[nH]nc2n1-c1ccc(Cl)nc1C(c1ccccc1)=NC2 | 222 to 224
45 | CCNc1nc(N=[N+]=[N-])nc(NC(C)C(F)(F)F)n1 (configuration not stated) | 69 to 75
46 | CSc1nc(N)nc(SC)c1-c1ccc(Cl)cc1Cl | 164 to 165
47 | COCC1CN(c2ccc(C3CC4C=CC3C4)cc2)C(=O)O1 (racemic) | 46 to 48
48 | COc1ccccc1N1CCN(Cc2c[nH]c3ccccc23)CC1 | 188 to 190
49 | CN1C(=O)CSC(c2cccc(Cl)c2)c2cc(C(N)(c3ccc(Cl)cc3)c3cncn3C)ccc21 (configuration not stated) | 218
50 | C[C@H]1C[C@H](O)CN1c1ccc(C#N)c2ccccc12 | 149 to 151
51 | O=[N+]([O-])c1ccc(Oc2ccc(S(=O)(=O)NC3CCCCC3)cc2)cc1 | 94
52 | Nc1nc2c(ncn2C2C=CC(CO)C2)c(=S)[nH]1 (configuration not stated) | > 250
53 | Cn1ccnc1Sc1ccc(Nc2c(C#N)cnc3cc(/C=C/CCN4CCC(N5CCCC5)CC4)sc23)cc1Cl | 213 to 216
54 | CC(=O)OCCN1CCC(CNC(=O)[C@@H]2CCCN2S(=O)(=O)c2ccc(Cl)c(COc3cccc4c(-n5ccnc5)cc(C)nc34)c2Cl)CC1 | 93
55 | O=C(NCc1ccccc1Cl)c1cccnc1OCc1cccnc1 | 91 to 93

Further lines, results first:

Row | melting point [°C] | Structure (SMILES)
56 | 155 to 157 | O=C(CCC(O)c1cccs1)Nc1cccc2cc(-c3nccs3)[nH]c12 (configuration not stated)
57 | 156 to 158 | CC(C)(C)CC(=O)c1ccc(O)c(Cl)c1Cl
58 | 75 to 77 | COC(=O)c1c(C)sc(C)c1N
59 | 226 to 228 | COc1ccc(-c2ccc(Cl)nn2)cc1Br
60 | 144 to 145 | O=c1oc(-c2ccc(C(F)(F)F)cc2)nn1Cc1cc(Cl)ccc1O
61 | 201 to 203 | COC(=O)c1ccc(C(=O)NS(=O)(=O)c2ccc(CCNC(=O)COc3ccccc3)cc2)cn1
62 | 177 to 181 | O=C(O)c1cc(-c2ccc3c(c2)CCO3)nn(CC=Cc2ccc(Cl)cc2)c1=O
63 | 89 to 90 | CCc1oc(CCOc2ccc(N)cc2)nc1-c1ccccc1
64 | 130 | CCC(CC)CNC(=O)c1ccc2cccc(Cc3ccc(C(=O)OC)cc3OC)c2c1
65 | 140 | CCCc1nnc(-c2ccc([N+](=O)[O-])cc2)n1-c1ccc(OC)cc1
66 | 186 to 187 | COc1ccc(C(=O)Nc2cc(NC(=O)c3ccc(OCCCCl)cc3)ccc2C)cc1OC
67 | 44 to 45 | COc1cc2c(cc1OC)C(CBr)OCCC2 (configuration not stated)
68 | 252 to 254 | COc1ccc2c([N+](=O)[O-])c(-c3ccc(OCc4ccccc4)cc3)[nH]c(=O)c2c1
69 | 74 to 75 | Nc1ccc(OCc2nc(Cl)ccc2Cl)cc1
70 | 70 to 71 | Cc1cc2c(c(C)c1C)C(c1ccc(C(C)C)cc1)CO2 (configuration not stated)
71 | 73 | CC(=O)OCCCc1c(C)[nH]c(C(=O)OC(C)(C)C)c1C
72 | 157 to 160 | CCOC(=O)C1=C(O)c2cc3cc(OC)ccc3n2CC1
73 | 189 to 191 | NC(=O)CNC(=S)Nc1c(Cl)cccc1Cl
74 | 116 to 118 | CC(C)(C)C(=O)OC(COc1cccc2[nH]ncc12)CN1CCC(COc2ccccc2)CC1 (configuration not stated)
75 | 150 | CCCCc1nc(SCC)c2ccccc2c1Cc1ccc(C(=O)O)cc1
76 | 88 to 90 | CC(C)(C#N)c1cc(-n2cncc2C#N)cc(C(C)(C)C#N)c1
77 | 83 to 89 | CN(C)CC1CCc2cc(OCc3ccc([N+](=O)[O-])cc3)ccc2C1 (configuration not stated)
78 | 212 | CCCCc1ncc2ccccc2c1Cc1ccc(C(=O)O)cc1
79 | 239 to 240 | CC(=O)Oc1ccc2scc(C(=O)O)c2c1

Row | melting point [°C] | Structure (SMILES)
80 | 85 to 87 | CCOC(=O)Cc1sc(Sc2nccc(C)c2C(=O)OCC)nc1C
81 | 181 to 183 | COc1cc(N)c(N)cc1C(N)=O
82 | 204 to 205 | CC(C)(C)OC(=O)N1CCN(c2[nH]nc(-c3ccc(Cl)cc3)c2-c2ccncc2)CC1
83 | 170 to 172 | Nc1nc(C(=NOCC(=O)NOCc2ccccc2)C(=O)O)cs1
84 | 114 | COc1ccc2oc(C(=O)OCC(C)(C)C(O)C(C)(C)C)cc2c1 (configuration not stated)
85 | > 268 | COCOc1ccc(-c2ncc3ccc(-c4csc(CN5CCN(C)CC5)c4)nc3n2)cc1
86 | 78 | CNC(=Nc1ccccc1N1CCCCC1)C(C)(C)C
87 | 174 to 176 | Cc1cc(=O)oc2cc(NCc3ccccc3)ccc12
88 | 163 to 165 | Cc1cc(-n2cnn(Cc3ccc(F)cc3)c2=O)sc1C(=O)NCc1ncco1
89 | 117 to 119 | CCOc1ccc(C=C2N=C(C)OC2=O)cc1OCC
90 | 220 to 223 | O=C(CNc1ccc2[nH]c(=O)oc2c1)N1CCC(Oc2ccccc2)CC1
91 | 163 to 165 | CC(=O)c1ccc2c(c1)S(=O)(=O)c1ccccc1O2
92 | 182 to 184 | CC(C)CC(=O)Nc1cccc(-c2ccnc3c(-c4cccc(N(C)C)c4)cnn23)c1
93 | 149 to 151 | CCSc1nc2c(C)sc(C(=O)OC)c2n1Cc1ccc(-c2ccccc2C#N)cc1
94 | 149 to 150 | CC(C)(Oc1ccc(C(=O)c2ccc(Cl)cc2)cc1)C(=O)Oc1ccc(I)cc1
95 | 179 to 180 | CCCN=C(N)Nc1ccnc(S(C)=O)n1 (configuration not stated)
96 | 155 to 157 | CC(C)(O)Cc1nc2cnc3ccccc3c2s1
97 | 100 to 102 | COc1ccccc1C(=O)Nc1ccc(-n2nc(C(F)(F)F)cc2C(F)(F)F)cc1
98 | 153 to 154 | CC(C)=CCc1c(O)n2c3c(nc2n(Cc2ccccc2)c1=O)N(C)CN(C)C3=O
99 | 152 to 154 | CC(C)C(C(=O)O)c1cc(Cl)c(O)c(Cl)c1 (configuration not stated)
100 | 75 to 76 | CCOC(=O)/C=C/c1cn(-c2ccc(C(F)(F)F)cn2)nc1C(C)CC (configuration not stated)
101 | 164 to 166 | COc1ccc(CCNC=C2C(=O)Nc3cc(OC)c(OC)cc32)cc1OC
102 | 106 to 108 | CCOC(=O)c1ccc(-c2ccc(OC)c(-c3cccc([N+](=O)[O-])c3)c2)cc1
